Source: ChEMBL document CHEMBL5113450, “Discovery of potent dual ligands for dopamine D4 and σ1 receptors” (Bioorg Med Chem, 2022)
pKi: −log10 of the molar value. The source made the active and inactive calls. No cut-off for these calls is given here.

Experiments:
[1] = biological target: Voltage-gated inwardly rectifying potassium channel KCNH2 (Homo sapiens, UniProt Q12809); test: Displacement of [3H]dofetilide from recombinant human ERG stably expressed in HEK293 cell membranes measured after 60 mins by scintillation counting analysis; type: toxicity, Membrane
D(3) dopamine receptor = D(3) dopamine receptor (Homo sapiens, UniProt P35462); test: Displacement of [3H]methyl-spiperone from recombinant human D3 receptor measured after 60 mins by scintillation counting analysis
[2] = biological target: Sigma intracellular receptor 2 (Homo sapiens) (UniProt Q5BJF2); test: Displacement of [3H]-DTG/(+) pentazocine from human sigma2 receptor at 3 uM measured after 60 mins by scintillation counting analysis
[3] = biological target: D(1A) dopamine receptor (Homo sapiens) (UniProt P21728); test: Displacement of [3H]SCH 23390 from recombinant human D1 receptor at 3 uM measured after 60 mins by scintillation counting analysis
D(2) dopamine receptor = D(2) dopamine receptor (Homo sapiens, UniProt P14416); test: Displacement of [3H]methyl-spiperone from recombinant human D2S receptor measured after 60 mins by scintillation counting analysis
Chain of D(2) dopamine receptor (P14416 whole entry): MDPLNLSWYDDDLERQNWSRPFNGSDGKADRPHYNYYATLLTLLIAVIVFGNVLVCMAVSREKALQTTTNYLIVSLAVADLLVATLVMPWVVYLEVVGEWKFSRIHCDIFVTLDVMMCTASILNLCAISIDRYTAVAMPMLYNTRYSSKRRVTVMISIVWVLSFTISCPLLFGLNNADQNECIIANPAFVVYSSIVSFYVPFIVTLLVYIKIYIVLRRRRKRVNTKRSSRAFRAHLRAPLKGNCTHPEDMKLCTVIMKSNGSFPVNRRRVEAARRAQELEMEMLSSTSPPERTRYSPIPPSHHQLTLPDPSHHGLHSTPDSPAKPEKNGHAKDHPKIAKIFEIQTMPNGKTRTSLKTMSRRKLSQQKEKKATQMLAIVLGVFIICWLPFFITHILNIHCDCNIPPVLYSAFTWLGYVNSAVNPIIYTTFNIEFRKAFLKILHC

Chain of D(3) dopamine receptor (P35462 whole entry): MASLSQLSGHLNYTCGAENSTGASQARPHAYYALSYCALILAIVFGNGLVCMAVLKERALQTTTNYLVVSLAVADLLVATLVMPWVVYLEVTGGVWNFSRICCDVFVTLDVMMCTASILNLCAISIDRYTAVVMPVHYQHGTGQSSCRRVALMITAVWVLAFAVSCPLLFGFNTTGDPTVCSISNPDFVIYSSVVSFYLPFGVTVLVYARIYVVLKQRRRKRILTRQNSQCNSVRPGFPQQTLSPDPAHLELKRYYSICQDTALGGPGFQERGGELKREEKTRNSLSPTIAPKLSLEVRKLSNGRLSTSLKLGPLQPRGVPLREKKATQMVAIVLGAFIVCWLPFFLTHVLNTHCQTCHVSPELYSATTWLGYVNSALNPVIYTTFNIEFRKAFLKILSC
Chain of D(1A) dopamine receptor (Homo sapiens) (P21728 whole entry): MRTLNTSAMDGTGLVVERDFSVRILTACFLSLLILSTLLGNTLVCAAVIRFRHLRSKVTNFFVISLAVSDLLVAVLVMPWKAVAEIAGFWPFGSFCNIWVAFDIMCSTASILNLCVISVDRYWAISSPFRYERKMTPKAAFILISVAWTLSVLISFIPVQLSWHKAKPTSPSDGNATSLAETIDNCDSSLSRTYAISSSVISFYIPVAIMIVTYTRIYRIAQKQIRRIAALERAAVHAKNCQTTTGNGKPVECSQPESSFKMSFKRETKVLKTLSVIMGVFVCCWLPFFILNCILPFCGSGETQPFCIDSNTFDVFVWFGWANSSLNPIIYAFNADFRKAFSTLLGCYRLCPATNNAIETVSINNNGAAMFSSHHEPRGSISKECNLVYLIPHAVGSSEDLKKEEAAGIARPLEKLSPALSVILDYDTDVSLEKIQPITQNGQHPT
Chain of Voltage-gated inwardly rectifying potassium channel KCNH2 (Q12809 whole entry): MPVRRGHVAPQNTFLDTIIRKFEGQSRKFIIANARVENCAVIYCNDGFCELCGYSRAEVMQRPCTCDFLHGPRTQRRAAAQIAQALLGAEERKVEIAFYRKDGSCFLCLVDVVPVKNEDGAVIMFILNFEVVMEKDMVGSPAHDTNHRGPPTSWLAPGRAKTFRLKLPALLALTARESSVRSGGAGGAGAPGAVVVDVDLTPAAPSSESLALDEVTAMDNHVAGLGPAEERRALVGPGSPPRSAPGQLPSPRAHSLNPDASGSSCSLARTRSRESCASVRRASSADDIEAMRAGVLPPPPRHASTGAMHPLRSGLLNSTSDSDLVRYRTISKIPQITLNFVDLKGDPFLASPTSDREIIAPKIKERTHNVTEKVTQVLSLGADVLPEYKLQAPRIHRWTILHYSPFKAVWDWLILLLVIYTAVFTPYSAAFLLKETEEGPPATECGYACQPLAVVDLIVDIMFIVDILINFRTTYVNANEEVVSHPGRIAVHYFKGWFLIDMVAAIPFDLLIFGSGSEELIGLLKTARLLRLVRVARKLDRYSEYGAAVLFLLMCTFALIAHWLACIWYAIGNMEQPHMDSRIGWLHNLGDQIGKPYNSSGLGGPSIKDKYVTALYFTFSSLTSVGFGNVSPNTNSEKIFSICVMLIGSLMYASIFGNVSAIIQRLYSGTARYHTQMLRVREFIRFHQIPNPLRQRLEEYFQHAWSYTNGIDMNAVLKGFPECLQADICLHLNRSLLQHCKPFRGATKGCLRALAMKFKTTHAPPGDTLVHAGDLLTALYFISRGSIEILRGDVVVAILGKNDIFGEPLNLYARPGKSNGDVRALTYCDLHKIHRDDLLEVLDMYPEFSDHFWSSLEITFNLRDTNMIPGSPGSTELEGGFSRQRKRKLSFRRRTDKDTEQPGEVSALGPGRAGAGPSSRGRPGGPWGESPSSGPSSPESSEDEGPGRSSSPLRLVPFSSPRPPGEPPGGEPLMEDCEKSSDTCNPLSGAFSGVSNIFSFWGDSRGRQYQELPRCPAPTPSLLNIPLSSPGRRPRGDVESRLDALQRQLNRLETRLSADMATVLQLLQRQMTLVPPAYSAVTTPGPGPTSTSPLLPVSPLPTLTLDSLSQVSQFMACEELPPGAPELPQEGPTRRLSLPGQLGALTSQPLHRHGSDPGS
Chain of Sigma intracellular receptor 2 (Homo sapiens) (Q5BJF2 whole entry): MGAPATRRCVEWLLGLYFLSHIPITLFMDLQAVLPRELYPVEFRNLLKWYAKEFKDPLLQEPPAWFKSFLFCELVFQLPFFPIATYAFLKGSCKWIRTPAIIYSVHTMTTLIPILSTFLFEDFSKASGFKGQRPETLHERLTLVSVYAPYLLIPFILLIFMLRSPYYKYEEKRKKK

pKi (D(3) dopamine receptor): < 5.00
Activity [2]: Active
Activity [3]: Active
pKi (D(2) dopamine receptor): 5.20
SMILES: c1ccc(Cc2cn(C3CCN(Cc4ccccc4)CC3)nn2)cc1
pKi [1]: 5.34
